Laboratory results reported in patent US20210379147A1, “METHOD AND SYSTEM FOR TREATING CANCER UTILIZING TINAGL1” (The Trustees of Princeton University, priority 2018, published 2021).

Assays:
LM2 cells = experiment: LM2 orthotopic tumors, single or combined agent treatment; assay type: in vivo, NSG female mice; conditions: for spontaneous lung metastasis: LM2 tumors, ex vivo BLI at endpoint
Protocol: FIG. 17A is an image of WB analyses where NSG female mice were injected with 10^4 LM2 cells by MFP injection, and intravenously treated with the indicated reagents twice per week when tumors reached to 2 mm in dimeter, then after 5 weeks of the treatments, the primary tumors of each group were collected and activation of EGFR and FAK in primary tumor of each group were tested by WB.
FIG. 17B is a graph illustrating tumor volumes of each treatment group from FIG. 17A.
FIG. 17C is a graph, quantifying ex vivo BLI results where lungs in mice from FIG. 17A were collected and spontaneous metastasis was examined at the endpoint.
Two molecular targeting reagents, ATN-161 (ATN) and Erlotinib (Erlo) were employed. ATN is an integrin α5β1 antagonist that inhibits the integrin signaling pathway and slows tumor progression. Erlotinib is a well-established small molecular inhibitor of EGFR and is clinically approved for cancer treatment. Mice orthotopically implanted with LM2 cells were split into 6 groups after the tumors reached 2 mm in diameter and subjected to various single or combined agent treatments twice per week [(1) PBS; (2) ATN 30 μg/mouse; (3) Erlo 100 mg/kg; (4) r-Tinagl1 30 μg/mouse; (5) ATN and Erlo; and (6) ATN, Erlo, and r-Tinagl1]. Referring to FIG. 17A, the inhibition of integrin/FAK and EGFR upon each treatment was validated by western blotting and TIC staining.
(§1) For xenograft studies, 8-weeks immunocompromised NOD Scid Gamma (NSG) or immunocompetent FVB females were used. Cells were suspended in 10 μl of PBS for mammary gland injection (MFP), or were suspended in 100 μl of PBS for intravenous injection. For human patient-derived xenograft (PDX, HCL001, kindly provided by Dr. Alana Welm) study, we followed the standard protocol for PDX transplantation, maintenance and digestion of the tumors (DeRose et al., 2011). 2×10^4 cells were suspended in 10 μl of PBS and subjected to MFP injection. For recombinant Tinagl1 (r-Tinagl1), ATN-161, Erlotinib treatments, the mice were injected with 30 μg/mouse, 30 μg/mouse, and 100 mg/kg respectively twice per week via tail-vein. Primary tumors were quantified once per week via caliper measurement. All cell lines used for lung metastasis experiments were stably labeled with a firefly luciferase expressing vector and were monitored by weekly bioluminescent imaging (BLI). At protocol-defined endpoints, lungs were dissected and fixed in bouin's solution and the metastatic lesions were counted.

SUM159-M1a = SUM159-M1a orthotopic tumors, single or combined agent treatment; assay type: in vivo, NSG female mice; conditions: SUM159-M1a model
Protocol: FIG. 17D is an image of WB analyses where NSG female mice were injected with 10^4 M1a cells by MFP injection, and treated with the indicated reagents twice per week when tumors reached to 2 mm in diameter, then after 5 weeks of the treatments, the primary tumors of each group were collected and activation of EGFR and FAK in primary tumor of each group was tested by WB.
FIG. 17E is a graph illustrating tumor volumes of each treatment group from FIG. 17D.
as §1, with “For recombinant Tinagl1 (r-Tinagl1), ATN-161, Erlotinib treatments, the mice were injected with 30 μg/mouse, 30 μg/mouse, and 100 mg/kg respectively twice per week via tail-vein.” left out

[1] = test system: primary tumors and lung metastases; experiment: IHC staining of tumor samples from treatment groups (Ki67, Casp3, CD31, α-SMA); assay type: in vivo, NSG female mice; conditions: for tumor cell proliferation (Ki67 staining): primary tumor and lung metastatic nodules
Protocol: FIGS. 17F-17I are graphs quantifying positives cells per field where primary tumors were collected from indicated treatment groups from FIG. 17D and then subjected to IHC staining with indicated antibodies, including % Ki67^+ (17F), % Casp3^+ (17G), % CD31^+ (17H), and % α-SMA^+ (17I).
TIC staining was performed as previously described (Wan et al., 2014). Briefly, Paraffin-embedded primary tumor or lung samples were sliced into 4 μm thickness. The slides were baked overnight at 60° C. Next, the tissue slides were washed with PBS after deparaffinization and hydration and then boiled in citrate buffer at 100° C. for 40 min. After treated with 3% H2O2 for 30 min to block endogenous peroxidase, slides were incubated at 4° C. overnight with Ki67 (Leica Biosystem, Ki67-MM1-L-CE-S), cleaved caspase-3 (Cell signaling, 9661S), p-EGFR (Cell signaling, 3777), p-FAK (Cell signaling, 8556), CD31 (Cell signaling, 77699), -SMA (Sigma, A5228), or Tinagl1 (Sigma, HPA048695) antibodies. Following washes with PBS, slides were then incubated with HRP-conjugated goat anti-rabbit or mouse secondary antibody (Genetech) for 30 min at room temperature. Sections were stained by DAB and then counterstained with Gill hematoxylin according to manufacturer's instructions.

human EGFR-GFP = biological target: T1, human EGFR-GFP (human, UniProt P00533 25-1210); experiment: competition co-IP in lysate of HEK293T cells co-expressing Tinagl1-HA and GFP-EGFR; competitor of Tinagl1-HA
T1 construct: Printed both as GFP-EGFR and EGFR-GFP; the order of the two pieces is not certain; Expressed in HEK293T or LM2 cells, assayed in lysate; also called GFP-EGFR; not shown: GFP

[2] = biological target: T2, mutant integrin β1 subunit (β1-M) with deletion of aa 130-240 (human, UniProt P05556 21-798); experiment: IP and WB from HEK293T cells overexpressing β1-M and Tinagl1-HA
T2 construct: Overexpressed in HEK293T cells, assayed in lysate; said to be still localized to the cell surface; also called β1-mutant; integrin subunit β1-Δ130-240aa
T2 sequence (P05556 other isoform, or with tags, fused parts or gaps mutant): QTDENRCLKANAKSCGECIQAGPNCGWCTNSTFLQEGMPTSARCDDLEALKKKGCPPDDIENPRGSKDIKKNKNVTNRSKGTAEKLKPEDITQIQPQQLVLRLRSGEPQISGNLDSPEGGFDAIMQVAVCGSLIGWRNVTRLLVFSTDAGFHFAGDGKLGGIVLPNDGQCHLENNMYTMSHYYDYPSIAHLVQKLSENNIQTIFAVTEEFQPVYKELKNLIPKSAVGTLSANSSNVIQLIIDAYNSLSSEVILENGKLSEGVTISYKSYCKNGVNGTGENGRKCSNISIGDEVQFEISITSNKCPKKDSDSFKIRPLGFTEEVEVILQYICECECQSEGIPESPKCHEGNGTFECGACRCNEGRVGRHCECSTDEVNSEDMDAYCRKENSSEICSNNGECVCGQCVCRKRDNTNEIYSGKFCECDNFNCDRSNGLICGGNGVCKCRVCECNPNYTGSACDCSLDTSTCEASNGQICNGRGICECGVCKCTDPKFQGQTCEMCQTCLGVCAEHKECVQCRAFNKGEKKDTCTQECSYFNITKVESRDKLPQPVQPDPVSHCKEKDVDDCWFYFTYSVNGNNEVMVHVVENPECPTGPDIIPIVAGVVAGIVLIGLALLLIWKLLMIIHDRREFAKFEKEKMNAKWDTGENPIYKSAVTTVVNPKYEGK
Protocol: Immunoprecipitation (IP) and western blotting (WB) analysis. For an IP experiment, cells were collected in 1.5 ml EP tube when they reached to 100% confluency in 10 or 15 cm dish as indicated. […] Meanwhile, culture media was 100× concentrated and mixed with the cell lysates. The samples were centrifuged, 100 μl of the supernatant was transferred to a new tube as input, and the rest was incubated with 2 μg of IgG, anti-HA, anti-Myc, anti-Integrin subunit β1, anti-Integrin subunit α5 or anti-EGFR (as indicated in each experiment) overnight at 4° C. (recombinant proteins may be added at this step as indicated in each experiment). […] The beads were then washed for 5 times with IP lysis buffer. After final spin, the beads were boiled with 50 μl of 1×SDS Laemmli buffer for 5 min, and the samples were subjected to western blotting (WB). […] 100 μl of combined solution was transferred to a new tube and served as input. The rest was split into two tubes and IP with 2 μg of IgG or His antibody respectively. The IP samples were washed with PBS and analyzed with WB.

Question: With `C#Cc1cccc(Nc2ncnc3cc(OCCOC)c(OCCOC)cc23)c1` [Erlotinib] as the molecule, how does the primary tumor growth (LM2 cells; LM2, twice per week, ATN 30 μg/mouse, Erlo 100 mg/kg, r-Tinagl1 30 μg/mouse) read?
Answer: Its primary tumor growth is “trended toward reducing primary tumor growth but did not reach statistical significance”.

Question: And the spontaneous lung metastasis (LM2 cells)?
Answer: Its spontaneous lung metastasis is “reduced spontaneous lung metastasis”.

Question: And the lung metastasis (SUM159-M1a)?
Answer: Its lung metastasis is “reduced lung metastasis”.

Question: And the “CD31+ endothelium” value ([1]; primary and lung metastasis)?
Answer: The value was “significantly reduced”.

Question: And the “tumor cell proliferation (Ki67 staining)” value [1]?
Answer: Its value is “inhibited tumor cell proliferation in lung metastatic nodules but not primary sites”.

Question: Which results are given for ATN-161?
Answer: spontaneous lung metastasis (LM2 cells): no reduction was observed; tumor cell proliferation (Ki67 staining) [1]: suppressed proliferation in primary tumor but not lung metastatic nodules

B1: full length recombinant human Tinagl1 with 6xHis tag at the C-terminus (r-Tinagl1) (other)
chain: AQQGRGRRELAPGLHLRGIRDAGGRYCQEQDLCCRGRADDCALPYLGAICYCDLFCNRTVSDCCPDFWDFCLGVPPPFPPIQGCMHGGRIYPVLGTYWDNCNRCTCQENRQWQCDQEPCLVDPDMIKAINQGNYGWQAGNHSAFWGMTLDEGIRYRLGTIRPSSSVMNMHEIYTVLNPGEVLPTAFEASEKWPNLIHEPLDQGNCAGSWAFSTAAVASDRVSIHSLGHMTPVLSPQNLLSCDTHQQQGCRGGRLDGAWWFLRRRGVVSDHCYPFSGRERDEAGPAPPCMMHSRAMGRGKRQATAHCPNSYVNNNDIYQVTPVYRLGSNDKEIMKELMENGPVQALMEVHEDFFLYKGGIYSHTPVSLGRPERYRRHGTHSVKITGWGEETLPDGRTLKYWTAANSWGPAWGERGHFRIVRGVNECDIESFVLGVWGRVGMEDMGHHVDHHHHHH
notes: also called r-Tiangl1; recombinant Tinagl1 protein
Question: Does B1 bind (human EGFR-GFP)?
Answer: Result: binds

B2: C-terminal HA tagged Tinagl1 (Tinagl1-HA) (other)
chain: AQQGRGRRELAPGLHLRGIRDAGGRYCQEQDLCCRGRADDCALPYLGAICYCDLFCNRTVSDCCPDFWDFCLGVPPPFPPIQGCMHGGRIYPVLGTYWDNCNRCTCQENRQWQCDQEPCLVDPDMIKAINQGNYGWQAGNHSAFWGMTLDEGIRYRLGTIRPSSSVMNMHEIYTVLNPGEVLPTAFEASEKWPNLIHEPLDQGNCAGSWAFSTAAVASDRVSIHSLGHMTPVLSPQNLLSCDTHQQQGCRGGRLDGAWWFLRRRGVVSDHCYPFSGRERDEAGPAPPCMMHSRAMGRGKRQATAHCPNSYVNNNDIYQVTPVYRLGSNDKEIMKELMENGPVQALMEVHEDFFLYKGGIYSHTPVSLGRPERYRRHGTHSVKITGWGEETLPDGRTLKYWTAANSWGPAWGERGHFRIVRGVNECDIESFVLGVWGRVGMEDMGHH
notes: Expressed in LM2 or HEK293T cells; assayed in cell lysate mixed with concentrated culture media; also called Tiangl1-HA; not shown: human influenza hemagglutinin (HA) tag fused to the C-terminal
Question: Does B2 bind [2]?
Answer: Result: no binding
